Patent US11707442B2, “Antibacterial and antifungal compounds” (The General Hospital Corporation, priority 2015, dated 2023)
≈ marks a conversion by molar mass, not a printed value. Where two headings read alike, the source gives them in different places.

Key:
E. faecalis = test: MIC, broth microdilution; assay type: cell-based, Enterococcus faecalis; conditions: for MIC: Enterococcus faecalis, E. faecalis, (range given for E. faecium and E. faecalis); for susceptibility of E. faecalis: result in words
Method: (§1) To test the bacterial MICs for compounds described herein, the total volume in each well was 100 μl of test compounds and bacterial cells in MH broth. Two-fold serial dilutions were carried out to get compounds in the concentration range 0.0625-64 μg/ml. The bacterial concentration was adjusted to an initial OD600 of 0.03. After incubation at 35° C. for 18 hrs, the absorbance was measured at 595 nm in accordance with CLSI document M07-A8. The MICs of antibiotics were determined by the standard microdilution method recommended by the Clinical and Laboratory Standards Institute.

[1] = Giant unilamellar vesicles (GUVs) disruption; conditions: DOPC/DOPG 7:3; 1× and 10×MIC; result in words
[2] = tested on: Salmonella typhimurium strains TA 1535 and TA 1538; conditions: for genotoxic potential: Ames test, result in words
Method: The Ames test was conducted using histidine auxotroph Salmonella typhimurium strains TA 1535 and TA 1538. To test mutagenic potential of the synthetic retinoids themselves and their metabolic products, the assay was conducted both with and without rat liver S9 fraction (Moltox, Boone, N.C., USA). Briefly, 100 μl of bacterial overnight cultures was added into 500 μl of phosphate buffer containing a range of amounts of the retinoids dissolved in 10 μl DMSO and with or without 4% S9. After incubation at 37° C. for 1 h, the samples were added into 2 ml of soft agar including 0.5 mM of histidine/biotin, mixed, and poured onto minimal glucose agar plates. The plates were incubated at 37° C. for 48 h, and the revertant colonies were counted. 10 μl DMSO was used as a negative control. […] 5 μg/plate 2-aminoanthracene was used as a positive control for both strains in the metabolic activation system. The test was performed in triplicate.

human erythrocytes = test: Human blood hemolysis; assay type: cell-based; conditions: increasing concentrations; result in words
Method: Human blood hemolysis. Hemolytic activity of retinoids on human erythrocytes was evaluated using a previously described method with modifications (Rajamuthiah, R. et al. A defensin from the model beetle Tribolium castaneum acts synergistically with telavancin and daptomycin against multidrug resistant Staphylococcus aureus. PLoS ONE 10, e0128576 (2015)). 10% human erythrocytes were purchased from Rockland Immunochemicals (Limerick, Pa., USA). The erythrocytes were diluted to 4% with PBS, and 100 μl was added to 100 μl of two-fold serial dilutions of compounds in PBS, 0.2% DMSO (negative control), or 2% Triton-X 100 (positive control) in a 96-well plate. The 96-well plate was incubated at 37° C. for 1 h and then centrifuged at 500×g for 5 min. 100 μl of the supernatant was transferred to a fresh 96-well plate, and absorbance of supernatants was measured at 540 nm. Percent hemolysis was calculated using the following equation: (A540 nm of compound treated sample—A540nm of 0.1% DMSO treated sample)/(A540 nm of 1% Triton X-100 treated sample—A540nm of 0.1% DMSO treated sample)×100. HC50 (concentration of a compound causing 50% hemolysis) was determined using SigmaPlot 10.0 (Systat Software Inc., San Jose, Calif., USA).
In a 96 well plate, 50 μl of 2% human erythrocytes suspended in PBS was added to 50 μl of compounds serially diluted in PBS and incubated at 37° C. for 1 hour. The plate was then centrifuged at 500 G for 5 minutes and 50 μl of the supernatant from each well of the assay plate was transferred to a fresh 96 well plate. Hemolysis was confirmed by both visual observation and measuring absorbance at 540 nm. Treatment was conducted in triplicate.
2% human erythrocytes were treated with two-fold serially diluted concentration of the retinoids for 1 h at 37° C. A sample treated with 1% Triton-X 100 was used as the control for 100% hemolysis. Results are shown as means±s.d.; n=3.

hERG potassium channel = target: T1, hERG potassium channel (Homo sapiens, UniProt Q12809); test: hERG potassium channel inhibition (IonWorks HT, CHO cells); assay type: cell-based; conditions: at 25 μM
T1 construct: host or cells: Chinese hamster ovary (CHO) cells
Method: Evaluation of human ether-a-go-go-related gene (hERG) potassium channel inhibition potential. […] Electrophysiology measurement was conducted using an IonWorks™ HT instrument (Molecular Devices Corporation, Sunnyvale, Calif., USA) and 384-well planar PatChPlate™ (Molecular Devices Corporation). Briefly, Chinese hamster ovary (CHO) cells expressing the hERG potassium channel were dispensed into 384-well planar arrays, and hERG tail currents were measured by whole-cell voltage clamping. A range of concentrations (0.008 μM to 25 μM) of each retinoid were then added to the cells, and a second recording of the hERG current was made. The percent change in the hERG current was calculated.

K. pneumonia WGLW2 = test: MIC, broth microdilution; assay type: cell-based, Klebsiella pneumoniae; conditions: Klebsiella pneumoniae; K. pneumonia WGLW2; read-out: Minimum inhibitory concentration
Excerpt: Bacterial strains and growth conditions and persister isolation: methicillin-resistant S. aureus (MRSA) strain MW2 BAA-1707, vancomycin-resistant S. aureus strain VRS 1, 11 clinical S. aureus isolates, 8 clinical Enterococcus faecium isolates, Klebsiella pneumoniae WGLW2 (BEI Resources, Manassas, Va., USA), Acinetobacter baumannii ATCC 17978, Pseudomonas aeruginosa PA14, and Enterobacter aerogenes ATCC 13048 were used to test antimicrobial activity (See Table 1a). S. aureus and E. faecium strains were grown in tryptic soy broth (TSB) (BD, Franklin Lakes, N.J., USA) or brain-heart infusion (BHI) broth (BD, Franklin Lakes, N.J., USA), respectively at 37° C. at 225 rpm. K. pneumoniae, A. baumannii, P. aeruginosa, and E. aerogenes were grown in Luria Bertani (LB) broth (BD, Franklin Lakes, N.J., USA).
as §1, with “Two-fold serial dilutions were carried out to get compounds in the concentration range 0.0625-64 μg/ml.” left out

S. aureus MW2 = assay type: cell-based, Staphylococcus aureus; conditions: for fold increase in resistance: mutations in graS, yjbH, and manA; for fold increased resistance of CD437-resistant mutants: presumptive CD437-resistant SP1/SP2 mutants
Method: Development of resistant mutants by serial passage was conducted as previously described (Friedman, L. et al. Genetic changes that correlate with reduced susceptibility to daptomycin in Staphylococcus aureus. Antimicrob. Agents Chemother. 2006, 50, 2137-2145). […] The extended gradient was created by 2-fold serial dilutions with cation-adjusted Muller-Hinton media (CaMH) from three different starting concentrations: 80, 96, and 128 μg/ml. […] After incubating the plate at 37° C. for 24 h, OD600 nm was measured by a spectrophotometer (SpectraMax M2, Molecular Devices). Bacterial growth was defined as OD600 nm≥0.1. Two μl of the bacterial culture at the highest drug concentration that permitted bacterial growth was diluted 1,000-fold in CaMH, and the diluted culture was used as inoculum for the next passage. The rest of the culture was stored in 16% glycerol at −80° C.
Sequencing of PCR products were conducted by GENEWIZ (South Plainfield, N.J., USA). The passage day when the mutations occurred was identified by colony PCR using three colonies from each glycerol freezer stock, followed by sequencing of the PCR products. The passage day when the susceptibility to the retinoids changed was identified by repeating MIC determinations using overnight cultures from three colonies from each glycerol freezer stock.

T1 sequence (Q12809 whole entry): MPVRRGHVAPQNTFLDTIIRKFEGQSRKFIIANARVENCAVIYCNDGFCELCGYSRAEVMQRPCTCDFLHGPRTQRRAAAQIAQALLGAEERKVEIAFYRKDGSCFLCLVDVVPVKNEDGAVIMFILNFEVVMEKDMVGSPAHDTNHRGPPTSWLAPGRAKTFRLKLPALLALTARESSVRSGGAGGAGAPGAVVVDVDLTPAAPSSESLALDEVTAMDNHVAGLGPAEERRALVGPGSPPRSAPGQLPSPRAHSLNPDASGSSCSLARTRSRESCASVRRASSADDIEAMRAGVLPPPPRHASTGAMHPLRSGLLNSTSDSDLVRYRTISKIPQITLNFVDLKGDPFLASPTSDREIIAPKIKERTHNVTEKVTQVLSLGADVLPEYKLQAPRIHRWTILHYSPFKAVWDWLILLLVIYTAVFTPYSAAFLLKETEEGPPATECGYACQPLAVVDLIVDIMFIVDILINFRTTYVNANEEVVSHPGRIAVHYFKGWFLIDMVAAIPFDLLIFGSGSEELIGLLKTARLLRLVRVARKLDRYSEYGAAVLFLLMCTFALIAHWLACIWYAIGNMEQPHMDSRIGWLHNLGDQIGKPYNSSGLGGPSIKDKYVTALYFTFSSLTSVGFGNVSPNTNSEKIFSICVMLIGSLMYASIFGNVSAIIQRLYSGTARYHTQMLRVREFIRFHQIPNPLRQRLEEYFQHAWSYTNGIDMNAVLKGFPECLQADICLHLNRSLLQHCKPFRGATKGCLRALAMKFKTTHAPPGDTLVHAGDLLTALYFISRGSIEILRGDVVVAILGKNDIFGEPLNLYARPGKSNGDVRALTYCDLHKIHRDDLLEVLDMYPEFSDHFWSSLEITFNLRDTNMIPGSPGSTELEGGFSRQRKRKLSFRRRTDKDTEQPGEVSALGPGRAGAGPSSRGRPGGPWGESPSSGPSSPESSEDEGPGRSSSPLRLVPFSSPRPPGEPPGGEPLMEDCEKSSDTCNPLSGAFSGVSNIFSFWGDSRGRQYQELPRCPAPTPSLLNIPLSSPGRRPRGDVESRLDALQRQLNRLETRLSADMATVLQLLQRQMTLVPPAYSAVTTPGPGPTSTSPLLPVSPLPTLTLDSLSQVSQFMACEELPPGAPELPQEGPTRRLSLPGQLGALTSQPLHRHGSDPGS

Structure (SMILES): O=C(O)c1ccc(-c2ccc3cc(O)c(C45CC6CC(CC(C6)C4)C5)cc3c2)cc1 [CD1530, 4-(6-hydroxy-7-tricyclo[3.3.1.13,7]dec-1-yl-2-naphthalenyl)-benzoic acid]
- MIC (E. faecalis): 2 to 4 µg/mL (≈ 5.02 to 10 µM)
- susceptibility of E. faecalis (E. faecalis): susceptible
- integrity of giant unilamellar vesicles (GUVs) [1]: disrupt the integrity
- genotoxic potential [2]: did not show significant genotoxic potential
- Number of revertants (T1535) ([2]; With S9, 5 μg/plate): 7 ± 3
- Number of revertants (T1538) ([2]; With S9, 5 μg/plate): 7 ± 3
- Number of revertants (T1535) ([2]; With S9, 25 μg/plate): 7 ± 2
- Number of revertants (T1538) ([2]; With S9, 25 μg/plate): 10 ± 4
- Number of revertants (T1535) ([2]; With S9, 100 μg/plate): 8 ± 2
- Number of revertants (T1538) ([2]; With S9, 100 μg/plate): 8 ± 2
- Number of revertants (T1535) ([2]; Without S9, 5 μg/plate): 7 ± 3
- Number of revertants (T1538) ([2]; Without S9, 5 μg/plate): 3 ± 3
- Number of revertants (T1535) ([2]; Without S9, 25 μg/plate): 7 ± 2
- Number of revertants (T1538) ([2]; Without S9, 25 μg/plate): 4 ± 2
- Number of revertants (T1535) ([2]; Without S9, 100 μg/plate): 8 ± 4
- Number of revertants (T1538) ([2]; Without S9, 100 μg/plate): 4 ± 2
- toxicity (hemolysis) to erythrocytes (human erythrocytes): not toxic
- inhibition of hERG potassium channels (hERG potassium channel): did not inhibit
- MIC (K. pneumonia WGLW2): > 64 µg/mL
- fold increase in resistance (S. aureus MW2): 1.5 fold
- fold increased resistance of CD437-resistant mutants (S. aureus MW2): 2 fold

Structure (SMILES): O=C(O)/C=C/c1ccc(-c2ccc(O)c(C34CC5CC(CC(C5)C3)C4)c2)cc1 [Adarotene, (2E)-3-(4′-Hydroxy-3′-tricyclo[3.3.1.13,7]dec-1-yl[1,1′-biphenyl]-4-yl)-2-propenoic acid]
- integrity of giant unilamellar vesicles (GUVs) [1]: disrupt the integrity
- genotoxic potential [2]: did not show significant genotoxic potential
- Number of revertants (T1535) ([2]; With S9, 5 μg/plate): 6 ± 2
- Number of revertants (T1538) ([2]; With S9, 5 μg/plate): 8 ± 4
- Number of revertants (T1535) ([2]; With S9, 25 μg/plate): 7 ± 3
- Number of revertants (T1538) ([2]; With S9, 25 μg/plate): 8 ± 1
- Number of revertants (T1535) ([2]; With S9, 100 μg/plate): 7 ± 1
- Number of revertants (T1538) ([2]; With S9, 100 μg/plate): 7 ± 3
- Number of revertants (T1535) ([2]; Without S9, 5 μg/plate): 6 ± 1
- Number of revertants (T1538) ([2]; Without S9, 5 μg/plate): 6 ± 1
- Number of revertants (T1535) ([2]; Without S9, 25 μg/plate): 7 ± 3
- Number of revertants (T1538) ([2]; Without S9, 25 μg/plate): 4 ± 3
- Number of revertants (T1535) ([2]; Without S9, 100 μg/plate): 6 ± 2
- Number of revertants (T1538) ([2]; Without S9, 100 μg/plate): 5 ± 2
- toxicity (hemolysis) to erythrocytes (human erythrocytes): not toxic
- inhibition of hERG potassium channels (hERG potassium channel): did not inhibit
- MIC (K. pneumonia WGLW2): > 64 µg/mL
- fold increase in resistance (S. aureus MW2): 1.5 fold
- fold increased resistance of CD437-resistant mutants (S. aureus MW2): 2 fold

Structure (SMILES): O=C(O)c1ccc2cc(-c3ccc(O)c(C45CC6CC(CC(C6)C4)C5)c3)ccc2c1 [CD437, 6-(4-hydroxy-3-tricyclo[3.3.1.13,7]dec-1-ylphenyl)-2-naphthalenecarboxylic acid]
- MIC (E. faecalis): 2 to 4 µg/mL (≈ 5.02 to 10 µM)
- susceptibility of E. faecalis (E. faecalis): susceptible
- genotoxic potential [2]: did not show significant genotoxic potential
- Number of revertants (T1535) ([2]; With S9, 5 μg/plate): 6 ± 3
- Number of revertants (T1538) ([2]; With S9, 5 μg/plate): 9 ± 3
- Number of revertants (T1535) ([2]; With S9, 25 μg/plate): 8 ± 3
- Number of revertants (T1538) ([2]; With S9, 25 μg/plate): 10 ± 2
- Number of revertants (T1535) ([2]; With S9, 100 μg/plate): 8 ± 3
- Number of revertants (T1538) ([2]; With S9, 100 μg/plate): 6 ± 1
- Number of revertants (T1535) ([2]; Without S9, 5 μg/plate): 6 ± 2
- Number of revertants (T1538) ([2]; Without S9, 5 μg/plate): 5 ± 2
- Number of revertants (T1535) ([2]; Without S9, 25 μg/plate): 5 ± 2
- Number of revertants (T1538) ([2]; Without S9, 25 μg/plate): 4 ± 1
- Number of revertants (T1535) ([2]; Without S9, 100 μg/plate): 8 ± 2
- Number of revertants (T1538) ([2]; Without S9, 100 μg/plate): 3 ± 3
- MIC (K. pneumonia WGLW2): > 64 µg/mL
